Data as given in ChEMBL document CHEMBL3044741, “Synthesis of novel biologically active methylene derivatives of sydnones” (Med Chem Res, 2013).
Values after ≈ are worked out from the molar mass of the structure shown.

How the values were obtained:
[1] = Selectivity index, ratio of CC50 for human MT4 cells to IC50 for HIV2 ROD; format: functional
[2] = system: Human immunodeficiency virus 2; assay: Antiviral activity against HIV2 ROD infected in MT4 cells assessed as inhibition of virus-induced cytopathogenicity by MTT assay; format: functional, organism-based; conditions: Human immunodeficiency virus 2, ISOLATE ROD
[3] = system: Human alphaherpesvirus 3; assay: Antiviral activity against Varicella-zoster virus Oka expressing thymidine kinase infected in HEL cells assessed as reduction in plaque formation; format: functional, organism-based; conditions: Human alphaherpesvirus 3, strain Oka vaccine
[4] = system: Candida albicans; assay: Antifungal activity against Candida albicans MTCC 227; format: functional
[5] = system: Pseudomonas aeruginosa; assay: Antibacterial activity against Pseudomonas aeruginosa MTCC 424 after 24 hrs by broth dilution method; format: functional; conditions: MTCC 424, 24 h
[6] = Selectivity index, ratio of CC50 for human MT4 cells to IC50 for HIV1 3B; format: functional
[7] = system: Staphylococcus aureus; assay: Antibacterial activity against Staphylococcus aureus MTCC 96 after 24 hrs by broth dilution method; format: functional; conditions: MTCC 96, 24 h
[8] = Cytotoxicity against human HEL cells assessed as alteration in cell morphology; format: cell-based
[9] = system: Streptococcus pyogenes; assay: Antibacterial activity against Streptococcus pyogenes MTCC 442 at 250 ug/ml after 24 hrs by Kirby-Bauer method; format: functional; conditions: MTCC 442, 24 h, read-out: IZ
[10] = system: Candida albicans; assay: Antifungal activity against Candida albicans MTCC 227 at 250 ug/ml after 74 hrs by Kirby-Bauer method; format: functional; conditions: MTCC 227, 74 h, read-out: IZ
[11] = system: Streptococcus pyogenes; assay: Antibacterial activity against Streptococcus pyogenes MTCC 442 after 24 hrs by broth dilution method; format: functional; conditions: MTCC 442, 24 h
[12] = system: Cytomegalovirus; assay: Antiviral activity against Cytomegalovirus AD-169 infected in HEL cells assessed as reduction in plaque formation; format: functional, organism-based; conditions: Human betaherpesvirus 5, AD-169, HEL
[13] = system: Aspergillus niger; assay: Antifungal activity against Aspergillus niger MTCC 282 at 250 ug/ml after 74 hrs by Kirby-Bauer method; format: functional; conditions: MTCC 282, 74 h, read-out: IZ
[14] = system: Staphylococcus aureus; assay: Antibacterial activity against Staphylococcus aureus MTCC 96 at 250 ug/ml after 24 hrs by Kirby-Bauer method; format: functional; conditions: MTCC 96, 24 h, read-out: IZ
[15] = system: Human immunodeficiency virus 1; assay: Antiviral activity against HIV1 3B infected in MT4 cells assessed as inhibition of virus-induced cytopathogenicity by MTT assay; format: functional, organism-based; conditions: Human immunodeficiency virus 1, 3B
[16] = system: Escherichia coli; assay: Antibacterial activity against Escherichia coli MTCC 443 at 250 ug/ml after 24 hrs by Kirby-Bauer method; format: functional; conditions: MTCC 443, 24 h, read-out: IZ
[17] = system: Escherichia coli; assay: Antibacterial activity against Escherichia coli MTCC 443 after 24 hrs by broth dilution method; format: functional; conditions: MTCC 443, 24 h
[18] = system: Aspergillus clavatus; assay: Antifungal activity against Aspergillus clavatus MTCC 1323; format: functional
[19] = system: Aspergillus niger; assay: Antifungal activity against Aspergillus niger MTCC 282; format: functional
[20] = system: Aspergillus clavatus; assay: Antifungal activity against Aspergillus clavatus MTCC 1323 at 250 ug/ml after 74 hrs by Kirby-Bauer method; format: functional; conditions: MTCC 1323, 74 h, read-out: IZ
[21] = Cytotoxicity against human HEL cells; format: cell-based
[22] = system: Human alphaherpesvirus 3; assay: Antiviral activity against thymidine kinase-deficient Varicella-zoster virus infected in HEL cells assessed as reduction in plaque formation; format: functional, organism-based; conditions: Human alphaherpesvirus 3, HEL
[23] = system: Cytomegalovirus; assay: Antiviral activity against Cytomegalovirus Davis in HEL cells assessed as reduction in plaque formation; format: functional, organism-based; conditions: Human betaherpesvirus 5, Davis
[24] = system: Pseudomonas aeruginosa; assay: Antibacterial activity against Pseudomonas aeruginosa MTCC 424 at 250 ug/ml after 24 hrs by Kirby-Bauer method; format: functional; conditions: MTCC 424, 24 h, read-out: IZ
[25] = Cytotoxicity against human MT4 cells by MTT assay; format: cell-based

Q: What does the source list for `[O-]c1on[n+](-c2ccc(Cc3ccc(-[n+]4noc([O-])c4CN4CCN(c5ccccc5)CC4)cc3)cc2)c1CN1CCN(c2ccccc2)CC1`?
A: Ratio CC50/IC50 [1]: <1; IC50 [2]: > 10.3 mg/L; EC50 [3]: > 4 mg/L; MIC [4]: 250 mg/L (≈ 365 µM); MIC [5]: 100 mg/L (≈ 146 µM); Ratio CC50/IC50 [6]: <1; MIC [7]: 500 mg/L (≈ 730 µM); MCC [8]: ≥ 20 µg/mL; zone of inhibition at 250 µg/mL [9]: 18 mm; zone of inhibition at 250 µg/mL [10]: 21 mm; MIC [11]: 200 mg/L (≈ 292 µM); EC50 [12]: > 4 mg/L; zone of inhibition at 250 µg/mL [13]: 20 mm; zone of inhibition at 250 µg/mL [14]: 17 mm; IC50 [15]: > 10.3 mg/L; zone of inhibition at 250 µg/mL [16]: 20 mm; MIC [17]: 125 mg/L (≈ 183 µM); MIC [18]: 250 mg/L (≈ 365 µM); MIC [19]: 1000 mg/L (≈ 1460 µM); zone of inhibition at 250 µg/mL [20]: 25 mm; CC50 [21]: 12 mg/L (≈ 17.5 µM); EC50 [22]: > 4 mg/L; EC50 [23]: > 20 mg/L; zone of inhibition at 250 µg/mL [24]: 22 mm; CC50 [25]: 10.3 mg/L (≈ 15 µM)
